The text below walks through data of publication PMC7922932, “Molecular Dissection of Escherichia coli CpdB: Roles of the N Domain in Catalysis and Phosphate Inhibition, and of the C Domain in Substrate Specificity and Adenosine Inhibition” (International Journal of Molecular Sciences, 2021).

Where two headings read alike, the source gives them in different places.

The IC50 is the concentration at which inhibition is half-maximal. By Ki is commonly meant the dissociation constant of the complex between target and ligand, obtained from inhibition or displacement.

In test [1] the target is T1, Mature CpdB (Escherichia coli, UniProt P08331). The test is described as follows: biochemical.
Excerpt: In this approach, inhibitors were used as probes for the relevance of those enzyme sites, irrespective of the physiological character and concentrations of the compounds used.
(§4) The procedures and detailed conditions to measure the initial rates of phosphohydrolytic reactions were as earlier described [4]. […] The same assay was used with 2′,3′- or 3′,5′-cyclic nucleotides, CDP-choline and bis-4-NPP except that an excess of alkaline phosphatase was included in the reaction mixture as auxiliary enzyme.
The procedures followed to derive kinetic parameters kcat, KM and Ki from initial rate vs. substrate concentration datasets, either in the presence or the absence of inhibitor, were as described elsewhere [49]. Datasets obtained with different substrates in the absence of inhibitors were used to derive kcat and KM values by adjusting the Michaelis-Menten equation to the experimental points by non-linear regression. […] Each one of these equations was simultaneously adjusted (global fit) by nonlinear regression to the three saturation curves of each inhibition experiment, using the Solver function of Microsoft Excel. During the adjustments, Vmax, KM and Ki were left to fluctuate. […] In each set of experiments, the type of inhibition that gave the best fit was used as the model to estimate Ki values.
Test [2] deals with T1, Mature CpdB. The test is described as follows: biochemical. The class given is biochemical. Set-up: A structural model of mature CpdB (aa 20–647) was built; GST (N, cleaved yes); made in house; host or cells: E. coli BL21. How it is done: (§1) Reaction mixtures of 100 µL contained, besides the needed amount of enzyme (i.e., 0.02–0.05 µg/mL of mature CpdB, 2 µg/mL of a CpdB point mutant, or 0.2 µg/mL of CpdB_Ndom), 50 mM Tris [Tris(hydroxymethyl)aminomethane]-HCl pH 7.5 (adjusted at 37 °C), 2 mM MnCl2, 0.1 mg/mL bovine serum albumin, and the indicated concentrations of bis-4-NPP and the compound tested as inhibitor. Incubations performed at 37 °C were stopped by addition of 0.5 mL of 200 mM Tris, pH 8.9, 5 mM EDTA (ethylenediaminetetraacetate), immediately followed by A405 measurement (ε = 18.1 mM^−1 cm^−1). This termination procedure was used instead of the addition of a high NaOH concentration, to avoid the known formation of brown precipitates of air-oxidized Mn^2+ hydroxide. On occasions, when a higher sensitivity was needed, reaction mixtures of 500 µL were implemented and termination was performed with 0.1 mL 1M Tris, pH 8.9, 30 mM EDTA.

The target in test [3] is T2, His^117Ala-CpdB (H117A-CpdB) (Escherichia coli, UniProt P08331, D305N/H117A/I514V/I97V/M87I/N471D/S472N).
T2 construct: A structural model of mature CpdB (aa 20–647) was built; GST (N, cleaved yes); made in house; host or cells: E. coli BL21
As to the kind of experiment: biochemical. Here is the method: (§2) The two point mutants His^117Ala and Tyr^544Ala of mature CpdB were also tested for the inhibition of the hydrolysis of bis-4-NPP by adenosine.
as §1

Test [4] deals with T3, Tyr^544Ala-CpdB (Y544A-CpdB) (Escherichia coli, UniProt P08331, D305N/I514V/I97V/M87I/N471D/S472N/Y544A).
T3 construct: A structural model of mature CpdB (aa 20–647) was built; GST (N, cleaved yes); made in house; host or cells: E. coli BL21
The test is described as follows: biochemical. Here is the method:
as §2, §1

The target in test [5] is T4, CpdB_Ndom (Escherichia coli, UniProt P08331, D305N/I97V/M87I).
T4 construct: GST (N, cleaved yes); made in house; host or cells: E. coli BL21
The test is described as follows: biochemical. Here is the method: Substrate saturation experiments were run in the absence and the presence of one of these inhibitors at fixed concentrations (Figure 7).
as §1

Test [6] addresses CpdB_Ndom. The test is classed as biochemical, Escherichia coli. Particulars: CpdB_Ndom versus CpdB; bis-4-NPP as substrate.
In test [7] the target is T4, CpdB_Ndom. The test is classed as biochemical. The conditions noted are these: CpdB_Ndom; 750 µM bis-4-NPP as the substrate; single illustrative experiments.
The target in test [8] is T5, His^117Ala-CpdB (Escherichia coli, UniProt P08331, D305N/H117A/I514V/I97V/M87I/N471D/S472N).
T5 construct: A structural model of mature CpdB (aa 20–647) was built; GST (N, cleaved yes); made in house; host or cells: E. coli BL21
The class given is biochemical. An excerpt: (§3) The role of the possible catalytic and substrate-binding sites was additionally tested by the preparation of two point mutants of the mature CpdB protein. On the one hand, the mutation His^117Ala modified the histidine residue conserved in the N domain (Figure 1b) with respect to UshA, where it has been proposed to be part of the catalytic core structure and to act as a general base that facilitates the nucleophilic attack by deprotonating a water molecule, and to participate in the stabilization of the transition state. […] On the other hand, mutation Tyr^544Ala modified one of the aromatic residues of CpdB which are conserved in the C domain with respect to the UshA phenylalanine residues that form a stacked sandwich with the adenine ring of the substrate.

For test [9], the system named is Tyr^544Ala-CpdB. The test is classed as biochemical, Escherichia coli. The conditions noted are these: Tyr^544Ala-CpdB versus wild-type mature CpdB.
Excerpt: as §3

In test [10] the target is T6, Tyr^544Ala-CpdB (Escherichia coli, UniProt P08331, D305N/I514V/I97V/M87I/N471D/S472N/Y544A).
T6 construct: A structural model of mature CpdB (aa 20–647) was built; GST (N, cleaved yes); made in house; host or cells: E. coli BL21
The test is classed as biochemical. The conditions noted are these: Tyr^544Ala-CpdB; substance is the substrate.
Excerpt: as §3

The target in test [11] is T1, Mature CpdB. Set-up: A structural model of mature CpdB (aa 20–647) was built; GST (N, cleaved yes); made in house; host or cells: E. coli BL21. The conditions noted are these: substance is the substrate; cited from earlier work.
Test [12] concerns the target T7, CpdB_Ndom (N-terminal domain of CpdB) (Escherichia coli, UniProt P08331, D305N/I97V/M87I).
T7 construct: GST (N, cleaved yes); made in house; host or cells: E. coli BL21
The class given is biochemical. Particulars: CpdB_Ndom; substance is the substrate; mean ± SD of three experiments.
Experimental: With all the detectably hydrolyzed substrates, saturation kinetics was studied and parameters kcat and KM were determined from Michaelis-Menten plots (Table 1).
The same assay was used with 2′,3′- or 3′,5′-cyclic nucleotides, CDP-choline and bis-4-NPP except that an excess of alkaline phosphatase was included in the reaction mixture as auxiliary enzyme.
Datasets obtained with different substrates in the absence of inhibitors were used to derive kcat and KM values by adjusting the Michaelis-Menten equation to the experimental points by non-linear regression.

The target in test [13] is T4, CpdB_Ndom. The test is described as follows: Products of the hydrolysis of cyclic (di)nucleotides by CpdB_Ndom (HPLC). The test is classed as biochemical. Particulars: 2′,3′-cAMP at 500 µM.
Excerpt: as §4
The mark [14] stands for this setting: mature CpdB, 750 µM bis-4-NPP as the substrate, single illustrative experiments, read-out: IC50.
The mark [15] stands for this setting: mature CpdB, substrate bis-4-NPP, global fit, mixed partial inhibition (Figure 5), values without SD are single experiments, read-out: Inhibition constant (Ki).
[16] abbreviates: CpdB_Ndom, substrate bis-4-NPP, global fit, complete competitive inhibition (Figure 7), read-out: Inhibition constant (Ki).
The mark [17] stands for this setting: His^117Ala-CpdB, substance is the substrate.

T5 sequence (P08331 20-647 M87I/I97V/H117A/D305N/N471D/S472N/I514V): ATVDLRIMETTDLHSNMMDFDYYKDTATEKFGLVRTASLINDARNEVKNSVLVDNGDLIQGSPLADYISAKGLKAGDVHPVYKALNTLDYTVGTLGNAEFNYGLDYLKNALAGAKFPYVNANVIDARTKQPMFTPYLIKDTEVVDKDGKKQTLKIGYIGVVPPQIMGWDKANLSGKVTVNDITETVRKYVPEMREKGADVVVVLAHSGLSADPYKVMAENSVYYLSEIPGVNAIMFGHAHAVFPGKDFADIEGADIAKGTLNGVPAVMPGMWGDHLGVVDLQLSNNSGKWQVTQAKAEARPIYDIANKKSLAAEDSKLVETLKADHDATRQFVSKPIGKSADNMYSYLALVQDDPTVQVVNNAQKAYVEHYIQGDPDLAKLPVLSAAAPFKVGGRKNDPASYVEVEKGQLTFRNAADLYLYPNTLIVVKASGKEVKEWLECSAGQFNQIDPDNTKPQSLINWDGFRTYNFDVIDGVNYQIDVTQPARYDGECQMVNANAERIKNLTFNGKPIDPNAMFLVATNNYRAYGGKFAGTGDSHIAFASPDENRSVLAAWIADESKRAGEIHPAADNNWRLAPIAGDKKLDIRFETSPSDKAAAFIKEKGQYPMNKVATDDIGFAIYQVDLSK
T1 sequence (P08331 20-647): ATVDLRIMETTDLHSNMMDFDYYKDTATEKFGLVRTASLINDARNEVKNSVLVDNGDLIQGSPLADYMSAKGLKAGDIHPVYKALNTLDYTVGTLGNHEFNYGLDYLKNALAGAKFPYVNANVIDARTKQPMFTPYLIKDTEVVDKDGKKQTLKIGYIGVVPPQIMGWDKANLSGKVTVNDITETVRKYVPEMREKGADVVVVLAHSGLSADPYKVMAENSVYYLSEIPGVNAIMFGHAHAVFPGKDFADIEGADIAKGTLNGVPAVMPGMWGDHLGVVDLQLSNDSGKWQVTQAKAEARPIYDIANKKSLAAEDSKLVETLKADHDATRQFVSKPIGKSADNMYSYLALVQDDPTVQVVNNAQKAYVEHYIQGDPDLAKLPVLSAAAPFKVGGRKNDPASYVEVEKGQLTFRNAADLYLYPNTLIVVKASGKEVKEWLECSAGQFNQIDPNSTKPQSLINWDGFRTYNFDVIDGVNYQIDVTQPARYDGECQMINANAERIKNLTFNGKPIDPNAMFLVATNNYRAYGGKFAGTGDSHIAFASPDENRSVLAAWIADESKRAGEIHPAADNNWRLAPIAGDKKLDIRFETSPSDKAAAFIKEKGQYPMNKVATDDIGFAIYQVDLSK
T4 sequence (P08331 20-354 M87I/I97V/D305N): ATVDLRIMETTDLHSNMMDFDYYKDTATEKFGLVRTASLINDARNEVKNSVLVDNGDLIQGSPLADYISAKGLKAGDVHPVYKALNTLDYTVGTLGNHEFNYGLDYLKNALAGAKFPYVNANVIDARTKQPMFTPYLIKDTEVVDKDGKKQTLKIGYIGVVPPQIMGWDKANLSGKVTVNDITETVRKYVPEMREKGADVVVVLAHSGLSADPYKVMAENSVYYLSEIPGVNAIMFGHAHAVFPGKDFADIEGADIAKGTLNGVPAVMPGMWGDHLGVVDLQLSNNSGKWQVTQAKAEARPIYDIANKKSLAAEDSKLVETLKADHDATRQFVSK
T7 sequence (P08331 20-354 M87I/I97V/D305N): as above
T6 sequence (P08331 20-647 M87I/I97V/D305N/N471D/S472N/I514V/Y544A): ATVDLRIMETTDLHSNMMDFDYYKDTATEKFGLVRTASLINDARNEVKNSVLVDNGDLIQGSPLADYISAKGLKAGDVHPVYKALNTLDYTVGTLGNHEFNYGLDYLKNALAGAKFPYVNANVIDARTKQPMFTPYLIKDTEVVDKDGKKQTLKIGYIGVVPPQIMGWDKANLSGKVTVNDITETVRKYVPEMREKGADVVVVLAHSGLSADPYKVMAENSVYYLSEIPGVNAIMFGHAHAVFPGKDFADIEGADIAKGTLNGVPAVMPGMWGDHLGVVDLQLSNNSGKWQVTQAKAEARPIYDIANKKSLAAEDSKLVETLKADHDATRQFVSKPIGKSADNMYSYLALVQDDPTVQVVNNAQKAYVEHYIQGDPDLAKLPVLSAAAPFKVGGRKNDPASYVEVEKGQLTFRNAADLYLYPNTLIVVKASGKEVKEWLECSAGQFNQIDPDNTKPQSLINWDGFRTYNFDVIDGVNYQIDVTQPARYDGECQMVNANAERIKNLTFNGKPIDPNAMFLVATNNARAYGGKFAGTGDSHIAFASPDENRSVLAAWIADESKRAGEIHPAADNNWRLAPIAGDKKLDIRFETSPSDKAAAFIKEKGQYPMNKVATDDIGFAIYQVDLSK
T2 sequence (P08331 20-647 M87I/I97V/H117A/D305N/N471D/S472N/I514V): as the sequence (P08331 20-647 M87I/I97V/H117A/D305N/N471D/S472N/I514V) above
T3 sequence (P08331 20-647 M87I/I97V/D305N/N471D/S472N/I514V/Y544A): as the sequence (P08331 20-647 M87I/I97V/D305N/N471D/S472N/I514V/Y544A) above

Consider `Nc1ncnc2c1ncn2[C@@H]1O[C@H](CO)[C@@H](O)[C@H]1O` [Adenosine, adenosine], for which the concentration for half-maximal inhibition (IC50) in test [1] is 3250 µM; in test [2], 870 µM; in test [3] it was 2000 µM; in [4] it was around 30000 µM; in test [5], above 10000 µM. For the same molecule, the figures for the inhibition constant (Ki) in test [1], in test [2] and in [5] were 41 ± 17 µM, 160 µM and 48000 µM, respectively.
Consider phosphate, for which the results for the IC50 in test [2] (setting [14]) and in [7] were 9000 µM and 1700 µM, respectively. Also, the values for the inhibition constant Ki in [2] (setting [15]) and in test [5] (setting [16]) were 1380 ± 340 µM and 1060 ± 210 µM, respectively. Further, the “Ki increase in the absence of the C-terminal domain” value in test [6] is on record as “did not change”.
On to `Nc1ncnc2c1ncn2[C@@H]1O[C@H](CO)[C@H]2OP(=O)(O)O[C@H]21` [2′,3′-cAMP], for which the “Catalytic efficiency (kcat/KM) lower than wild-type mature CpdB” value in test [8] (His^117Ala-CpdB versus wild-type mature CpdB, same substrate) turned out to be 5000 fold. Besides, the “K M” value in [8] (setting [17]) is reported as 126 ± 7 µM; in [10] it was 1600 ± 550 µM; in test [11], 27 µM; in test [12], 390 ± 170 µM. For the same molecule, the k cat in test [8] (setting [17]) is 0.18 ± 0.02 s⁻¹; in test [10] it was 190 ± 60 s⁻¹; in test [11], 190 s⁻¹; in test [12] it was 73 ± 32 s⁻¹. In addition, the “k cat /K M” value in test [8] (setting [17]) is 1500 ± 230 M⁻¹ s⁻¹; in test [10] it was 140,000 ± 73,000 M^−1 s^−1; in test [12], 190,000 ± 13,000 M^−1 s^−1. The “KM increase by the Tyr^544Ala mutation” value in [9] came out at 60 fold. The “k cat /K M (catalytic efficiency)” value in test [11] was 7,300,000 M^−1 s^−1. Further, the IC50 came to 56 µM in test [2] (setting [14]) and 840 µM in test [7]. The figures for the inhibition constant Ki in test [2] (setting [15]) and in [5] (setting [16]) were 5 ± 0.4 µM and 460 ± 50 µM, respectively. In test [13], the “2′-AMP as product of hydrolysis” value is recorded as 15%. In addition, the “3′-AMP as product of hydrolysis” value in test [13] stood at 85%.
